From the supplement of paper PMC10307832

What was measured:
Experiment in all cases: relative viability (nuclei count vs DMSO), 5 days (fraction); higher = more cells survive
[1] = compound: CC1=CC(=CC=C1)NC2=NC(=CS2)C3=CC=NC=C3 + COc1cccc2cc(-c3nc([C@H]4CC[C@H](C(=O)O)CC4)n4ncnc(N)c34)[nH]c12 [OSI-027] (partner 0.5 µM)
Procedure, shortened: (§1)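 Values are medians from duplicate plates. Each reflects relative viability, defined as the nuclei count of treated wells over that of vehicle wells. Lung cancer cell lines in 1536-well plates were pin-tool dosed one day after seeding with one drug alone or with a fixed anchor-drug dose plus five library-drug doses (not always all listed) in √10 steps, then fixed, stained and imaged at 4× after 5 days.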

[2] = compound: CC1=CC(=CC=C1)NC2=NC(=CS2)C3=CC=NC=C3 + O=C(CCCCCCC(=O)Nc1ccccc1)NO [Vorinostat] (partner 1 µM)
Procedure, shortened: as §1

Masitinib + Navitoclax = compound: Cc1ccc(NC(=O)c2ccc(CN3CCN(C)CC3)cc2)cc1Nc1nc(-c2cccnc2)cs1 [Masitinib] + CC1(C)CCC(c2ccc(Cl)cc2)=C(CN2CCN(c3ccc(C(=O)NS(=O)(=O)c4ccc(N[C@H](CCN5CCOCC5)CSc5ccccc5)c(S(=O)(=O)C(F)(F)F)c4)cc3)CC2)C1 [Navitoclax] (partner 0.5 µM)
Procedure, shortened: as §1

Masitinib + Linsitinib = compound: Cc1ccc(NC(=O)c2ccc(CN3CCN(C)CC3)cc2)cc1Nc1nc(-c2cccnc2)cs1 [Masitinib] + C[C@]1(O)C[C@@H](c2nc(-c3ccc4ccc(-c5ccccc5)nc4c3)c3c(N)nccn32)C1 [Linsitinib] (partner 1 µM)
Procedure, shortened: as §1

Cell Line	relative viability ([1]; first compound 0.08 µM)	relative viability ([1]; first compound 0.253 µM)	relative viability ([1]; first compound 0.8 µM)	relative viability ([1]; first compound 2.53 µM)	relative viability ([1]; first compound 8 µM)	relative viability ([2]; first compound 0.08 µM)	relative viability ([2]; first compound 0.253 µM)	relative viability ([2]; first compound 0.8 µM)	relative viability ([2]; first compound 2.53 µM)	relative viability ([2]; first compound 8 µM)	relative viability (Masitinib + Navitoclax; first compound 0.01 µM)	relative viability (Masitinib + Navitoclax; first compound 0.03162 µM)	relative viability (Masitinib + Navitoclax; first compound 0.1 µM)	relative viability (Masitinib + Navitoclax; first compound 0.3162 µM)	relative viability (Masitinib + Navitoclax; first compound 1 µM)	relative viability (Masitinib + Linsitinib; first compound 0.01 µM)	relative viability (Masitinib + Linsitinib; first compound 0.03162 µM)	relative viability (Masitinib + Linsitinib; first compound 0.1 µM)	relative viability (Masitinib + Linsitinib; first compound 0.3162 µM)	relative viability (Masitinib + Linsitinib; first compound 1 µM)
NCI-H1651	0.71	0.649	0.77	0.75	0.737	0.562	0.547	0.569	0.464	0.596	1.11	1	1.15	1.02	1.1	0.971	0.97	1.14	1	0.944
NCI-H1666	0.582	0.598	0.676	0.501	0.507	0.622	0.821	0.702	0.79	0.735	0.933	0.778	0.915	0.782	0.88	0.806	0.774	0.846	0.781	0.718
NCI-H1734	0.481	0.554	0.654	0.7	0.618	0.725	0.77	0.782	0.752	0.681	0.861	0.779	1	0.933	0.842	0.857	0.854	0.943	0.747	0.855
NCI-H1755	0.485	0.7	0.58	0.653	0.588	0.621	0.761	0.726	0.611	0.605	–	0.975	1.1	0.931	0.894	–	0.976	1	1.02	0.955
NCI-H1793	0.238	0.25	0.315	0.249	0.217	0.633	0.616	0.771	0.632	0.8	0.456	0.446	0.401	0.41	0.404	0.875	0.839	0.812	0.998	0.647
NCI-H1915	0.598	0.61	0.602	0.575	0.587	0.442	0.452	0.477	0.501	0.525	–	0.755	0.717	0.737	0.777	–	1.15	1.09	0.974	1.03
NCI-H1944	0.374	0.36	0.384	0.329	0.39	0.364	0.489	0.529	0.366	0.408	–	1.02	0.799	1	0.995	–	1.14	0.794	1.12	1.17
NCI-H1975	0.699	0.653	0.628	0.483	0.267	0.656	0.694	0.593	0.707	0.554	1.15	1.09	1.14	0.92	1.01	0.995	0.92	1.03	0.832	0.908
NCI-H1993	0.523	0.524	0.586	0.576	0.56	0.691	0.649	0.726	0.819	0.726	0.921	–	0.944	0.651	0.885	0.732	–	0.733	0.659	0.665
NCI-H2009	0.589	0.668	0.676	0.625	0.586	0.624	0.664	0.593	0.642	0.7	1.16	1.12	1.16	1.17	1.13	1.2	1.22	1.24	1.23	1.17
NCI-H2023	0.337	0.269	0.376	0.228	0.207	0.594	0.429	0.689	0.531	0.405	1.05	0.981	1.12	0.925	0.92	0.597	0.681	0.703	0.613	0.597
NCI-H2085	0.7	0.614	0.598	0.613	0.522	0.763	0.763	0.693	0.755	0.645	1.1	1.23	1.33	1.16	1.03	0.787	0.914	0.955	1.01	0.726
NCI-H2087	0.499	0.543	0.554	0.673	0.639	0.615	0.725	0.762	0.574	0.708	0.966	1.02	1.1	1.08	0.963	0.936	0.951	0.923	1.01	0.884
NCI-H2126	0.608	0.582	0.674	0.631	0.651	0.579	0.717	0.711	0.735	0.74	0.761	0.807	0.842	0.823	0.798	0.707	0.656	0.785	0.691	0.659
NCI-H2228	0.375	0.463	0.517	0.472	0.398	0.343	0.514	0.42	0.412	0.824	0.899	1.05	1.08	0.705	0.817	0.703	0.58	0.609	0.807	0.52
NCI-H2347	0.362	0.328	–	0.419	0.411	0.512	0.671	0.411	0.657	0.501	0.709	0.764	0.79	0.861	0.764	0.758	0.911	0.867	0.948	1.09
